Legend:
Type in all cases: in vivo
[1] = test system: Lucilia cuprina larvae; assay: Lucilia cuprina test (LUCICU); conditions: application rate 100 ppm; treated horse meat; after 2 days
Protocol: Lucilia cuprina test (LUCICU)
(§1) • Solvent: Dimethyl sulphoxide
To produce a suitable preparation of active compound, 10 mg of active compound are mixed with 0.5 ml of dimethyl sulphoxide and the concentrate is diluted with water to the desired concentration. Containers containing horse meat treated with the active compound preparation of the desired concentration are populated with about 20 Lucilia cuprina larvae.
After 2 days, the kill in % is determined. 100% means that all larvae have been killed; 0% means that none of the larvae have been killed.

[2] = test system: greenhouse red spider mite (Tetranychus urticae); assay: Tetranychus test; OP-resistant (TETRUR spray treatment); conditions: application rate 100 g/ha; bean leaf discs sprayed; after 6 days
Protocol: Tetranychus Test; OP-Resistant (TETRUR Spray Treatment)
(§2) • Solvents: 78.0 parts by weight of acetone • 1.5 parts by weight of dimethylformamide • Emulsifier: 0.5 part by weight of alkylaryl polyglycol ether
To produce a suitable preparation of active compound, 1 part by weight of active compound is mixed with the stated amounts of solvent and emulsifier, and the concentrate is diluted with emulsifier-containing water to the desired concentration. Discs of bean leaves (Phaseolus vulgaris), which are infested by all stages of the greenhouse red spider mite (Tetranychus urticae) are sprayed with an active compound preparation of the desired concentration.
After 6 days, the effect in % is determined. 100% means that all spider mites have been killed; 0% means that none of the spider mites have been killed.

[3] = test system: Boophilus microplus; assay: Boophilus microplus test (BOOPMI injection); conditions: application rate 20 μg/animal; injection into the abdomen; after 7 days
Protocol: Boophilus microplus Test (BOOPMI Injection)
as §1
To produce a suitable preparation of active compound, 10 mg of active compound are mixed with 0.5 ml of solvent and the concentrate is diluted with solvent to the desired concentration. The solution of active compound is injected into the abdomen (Boophilus microplus) and the animals are transferred into dishes and stored in a climatized room. The efficacy is monitored for deposition of fertile eggs.
After 7 days, the effect in % is determined. 100% means that none of the ticks has laid any fertile eggs.

[4] = test system: green peach aphid (Myzus persicae); assay: Myzus test (MYZUPE spray treatment); conditions: Chinese cabbage leaf discs sprayed, after 6 days
Protocol: Myzus Test (MYZUPE Spray Treatment)
• Solvents: 78 parts by weight of acetone • 1.5 parts by weight of dimethylformamide • Emulsifier: 0.5 part by weight of alkylaryl polyglycol ether
To produce a suitable preparation of active compound, 1 part by weight of active compound is mixed with the stated amounts of solvent and emulsifier, and the concentrate is diluted with emulsifier-containing water to the desired concentration. Discs of Chinese cabbage (Brassica pekinensis) which are infested by all stages of the green peach aphid (Myzus persicae) are sprayed with an active compound preparation of the desired concentration. After 6 days, the effect in % is determined. 100% means that all aphids have been killed; 0% means that none of the aphids have been killed.

[5] = test system: larvae of the mustard beetle (Phaedon cochleariae); assay: Phaedon test (PHAECO spray treatment); conditions: application rate 500 g/ha; Chinese cabbage leaf discs sprayed; after 7 days
Protocol: Phaedon Test (PHAECO Spray Treatment)
as §2
To produce a suitable preparation of active compound, one part by weight of active compound is mixed with the stated amounts of solvents and emulsifier, and the concentrate is diluted with emulsifier-containing water to the desired concentration. […].
After 7 days, the effect in % is determined. 100% means that all beetle larvae have been killed; 0% means that none of the beetle larvae have been killed.

[6] = test system: caterpillars of the armyworm (Spodoptera frugiperda); assay: Spodoptera frugiperda test (SPODFR spray treatment); conditions: application rate 500 g/ha; maize leaf discs sprayed; after 7 days
Protocol: Spodoptera frugiperda Test (SPODFR Spray Treatment)
as §2
To produce a suitable preparation of active compound, 1 part by weight of active compound is mixed with the stated amounts of solvent and emulsifier, and the concentrate is diluted with emulsified water to the desired concentration. Discs of maize leaves (Zea mays) are sprayed with an active compound preparation of the desired concentration and, after drying, populated with caterpillars of the armyworm (Spodoptera frugiperda).
After 7 days, the effect in % is determined. 100% means that all caterpillars have been killed; 0% means that none of the caterpillars have been killed.

SMILES | efficacy (kill of larvae) [1] | efficacy (spider mites killed) [2] | efficacy (deposition of fertile eggs) [3] | efficacy (aphids killed) ([4]; application rate 500 g/ha) | efficacy (beetle larvae killed) [5] | efficacy (caterpillars killed) [6] | efficacy (aphids killed) ([4]; application rate 100 g/ha)
CCc1c(-c2ccc(F)cc2)ccc(C)c1C1=C(O)C2(CCOCC2)NC1=O [Example I-1-a-10] | 90% | 100% | 80% | 100% |  |  | 
CCc1ccc(-c2ccc(Cl)cc2)c(CC)c1C1=C(O)[C@]2(CC[C@@H](OC)CC2)OC1=O [Example I-2-a-2] |  |  |  | 90% |  |  | 
CCOC(=O)OC1=C(c2c(CC)ccc(-c3ccc(Cl)cc3)c2C)C(=O)NC12CCC(OC)CC2 (stereo not drawn) [Example I-1-c-2] |  | 100% |  | 100% |  |  | 
CCc1cc(C)c(-c2ccc(Cl)cc2)c(C)c1C1=C(O)C2(CCOCC2)NC1=O [Example I-1-a-8] |  | 90% |  | 100% | 100% |  | 
CCc1ccc(-c2ccc(Cl)cc2)c(C)c1C1=C(OC(=O)C(C)C)C2(CCC(OC)CC2)NC1=O (stereo not drawn) [Example I-1-b-4] |  | 90% |  | 100% |  | 100% | 
CCc1c(-c2ccc(Cl)cc2)ccc(C)c1C1=C(O)C2(CCC(OC)CC2)NC1=O (stereo not drawn) [Example I-1-a-16] |  | 90% |  | 100% |  | 100% | 
CCc1ccc(-c2ccc(Cl)cc2)c(CC)c1C1=C(O)[C@]2(CC[C@H](OC)CC2)OC1=O [Example I-2-a-1] |  | 100% |  | 90% | 100% |  | 
CCc1ccc(-c2ccc(Cl)cc2)c(CC)c1C1=C(O)C2(CCN(OC)CC2)NC1=O [Example I-1-a-24] |  | 100% |  |  |  |  | 
CCc1ccc(-c2ccc(Cl)cc2)c(C)c1C1=C(O)C2(CCOCC2)NC1=O [Example I-1-a-3] |  | 90% | 80% | 100% | 100% | 80% | 
CCc1c(-c2ccc(F)cc2)ccc(C)c1C1=C(O)C2(CCC(OC)CC2)NC1=O (stereo not drawn) [Example I-1-a-9] |  | 70% | 100% | 90% | 83% |  | 
CCc1ccc(-c2ccc(F)cc2)c(CC)c1C1=C(O)C2(CCOCC2)NC1=O [Example I-1-a-20] |  | 100% |  | 100% |  |  | 
CCc1ccc(-c2ccc(F)cc2)c(C)c1C1=C(OC(=O)C(C)C)C2(CCC(OC)CC2)NC1=O (stereo not drawn) [Example I-1-b-3] |  | 100% |  | 90% |  |  | 
CCc1c(-c2ccc(F)cc2)ccc(C)c1C1=C(OC(=O)C(C)C)C2(CCC(OC)CC2)NC1=O (stereo not drawn) [Example I-1-b-2] |  |  |  | 90% |  |  | 
CCc1ccc(-c2ccc(Cl)cc2)c(CC)c1C1=C(OC(=O)C(C)C)C2(CCOCC2)NC1=O [Example I-1-b-1] |  | 80% |  |  |  | 83% | 
CCON1CCC2(CC1)NC(=O)C(c1c(CC)ccc(-c3ccc(Cl)cc3)c1C)=C2O [Example I-1-a-22] |  | 90% |  | 100% | 100% |  | 
CCc1ccc(-c2ccc(Cl)cc2)c(CC)c1C1=C(O)C2(CCOCC2)OC1=O [Example I-2-a-3] |  | 100% |  | 90% |  |  | 
CCc1ccc(-c2ccc(Cl)cc2)c(C)c1C1=C(O)C2(CCC(OC)CC2)OC1=O (single isomer, unassigned) [Example I-2-a-6] |  | 100% |  | 100% | 100% |  | 

SMILES | efficacy (kill of larvae) [1] | efficacy (spider mites killed) [2] | efficacy (deposition of fertile eggs) [3] | efficacy (aphids killed) ([4]; application rate 500 g/ha) | efficacy (beetle larvae killed) [5] | efficacy (caterpillars killed) [6] | efficacy (aphids killed) ([4]; application rate 100 g/ha)
CCc1ccc(-c2ccc(Cl)cc2)c(C)c1C1=C(O)C2(CCOCC2)OC1=O [Example I-2-a-7] |  | 100% |  | 100% |  | 100% | 
CCc1c(-c2ccc(Cl)cc2)ccc(C)c1C1=C(O)C2(CCOCC2)NC1=O [Example I-1-a-17] |  | 100% |  | 100% |  |  | 
CCc1ccc(-c2ccc(F)cc2)c(CC)c1C1=C(O)C2(CCC(OC)CC2)NC1=O (stereo not drawn) [Example I-1-a-18] |  | 100% |  | 100% |  |  | 
CCOC(=O)OC1=C(c2c(CC)ccc(-c3ccc(Cl)cc3)c2CC)C(=O)NC12CCOCC2 [Example I-1-c-1] |  |  |  | 90% |  |  | 
CCc1ccc(-c2ccc(Cl)cc2)c(C)c1C1=C(O)C2(CCN(OC)CC2)NC1=O [Example I-1-a-23] |  | 90% |  | 100% | 100% |  | 
CCc1ccc(-c2ccc(Cl)cc2)c(CC)c1C1=C(O)C2(CCOCC2)NC1=O [Example I-1-a-1] |  | 80% |  | 100% | 100% |  | 
CCc1ccc(-c2ccc(F)cc2)c(C)c1C1=C(O)C2(CCOCC2)NC1=O [Example I-1-a-5] |  | 90% |  | 100% |  |  | 
CCc1cc(C)c(-c2ccc(Cl)cc2)c(C)c1C1=C(O)C2(CCC(OC)CC2)NC1=O (stereo not drawn) [Example I-1-a-7] |  | 90% |  |  | 100% |  | 90%
CCc1ccc(-c2ccc(Cl)cc2)c(CC)c1C1=C(O)C2(CCC(OC)CC2)NC1=O (stereo not drawn) [Example I-1-a-19] |  | 90% |  |  | 100% |  | 
CCc1ccc(-c2ccc(Cl)cc2)c(C)c1C1=C(O)C2(CCC(OC)CC2)OC1=O (single isomer, unassigned) [Example I-2-a-5] |  |  |  | 90% | 100% |  | 
CCOC(=O)OC1=C(c2c(CC)ccc(-c3ccc(F)cc3)c2C)C(=O)NC12CCC(OC)CC2 (single isomer, unassigned) [Example I-1-c-3] |  | 90% |  | 100% |  |  | 
Cc1c(-c2ccc(Cl)cc2)ccc(Cl)c1C1=C(O)C2(CCOCC2)NC1=O [Example I-1-a-15] | 100% | 90% |  | 100% |  | 83% | 
O=C1NC2(CCOCC2)C(O)=C1c1c(Cl)ccc(-c2ccc(F)cc2)c1Cl [Example I-1-a-6] |  | 100% | 90% | 100% |  |  | 
Cc1c(-c2ccc(F)cc2)ccc(Cl)c1C1=C(O)C2(CCOCC2)NC1=O [Example I-1-a-13] | 90% | 100% | 80% | 100% |  | 100% | 
CCc1ccc(-c2ccc(F)cc2)c(C)c1C1=C(O)C2(CCC(OC)CC2)NC1=O (stereo not drawn) [Example I-1-a-4] |  | 100% |  | 90% | 83% |  | 
O=C1NC2(CCOCC2)C(O)=C1c1c(Cl)ccc(-c2ccc(Cl)cc2)c1Cl [Example I-1-a-2] | 100% |  | 95% | 100% |  | 100% | 
CCc1ccc(-c2ccc(Cl)cc2)c(C)c1C1=C(O)C2(CCC(OC)CC2)NC1=O (stereo not drawn) [Example I-1-a-21] |  | 100% |  | 100% |  |  | 

— US8901038B2, “Biphenyl-substituted cyclic ketoenols” (Bayer CropScience AG, priority 2010, dated 2014)
